This is an account of results in patent US11542283B2, “Synthesis of peptide borate ester compound and use thereof” (JIANGSU CHIA TAI FENGHAI PHARMACEUTICAL CO., LTD., priority 2018, dated 2023).

The structures appear in SMILES notation. Like-named read-outs stand apart in the source and are kept apart here.

A short description of data set [1]: In-vivo pharmacokinetic evaluation in SD rats. The settings on record: male SD rats; for AUC(0-t) / MRT last / half-life / bioavailability: rat, plasma; for AUC(0-t) / MRT last / half-life / CL_obs / Vz_obs: 2.0 mg/kg; for bioavailability: oral, p.o. 2.0 mg/kg vs i.v. 2.0 mg/kg, read-out: F (oral bioavailability); for CL_obs / Vz_obs: i.v. How it is done: Twelve male SD rats weighing 220±20g, were randomly divided into four groups.
Two groups were respectively given IV-9 and V-9A by tail vein injection at doses given in a table below, and before and 10 min, 20 min. 30 min, 1 h, 2 h, 4 h, 8 h, 12 h, 24 h and 36 h after administration, about 0.200 mL of blood was collected from the jugular vein, placed in a test tube containing EDTA-K2, and centrifuged at a high speed (7800×g) for 15 min. The plasma was separated, and stored at −15° C. to −35° C. The pharmacokinetic differences of IV-9 and V-9A administered by intravenous injection were compared.
The other two groups were respectively given IV-9 and V-9A by oral gavage at doses given in a table below, and before and 5 min, 10 min, 20 min, 30 min, 1 h, 2 h, 4 h, 8 h, 12 h, 24 h and 36 h after administration, about 0.200 mL of blood was collected from the jugular vein, placed in a test tube containing EDTA-K2, and centrifuged at a high speed (7800×g) for 15 min. The plasma was separated, and stored at −15° C. to −35° C. The pharmacokinetic differences of IV-9 and V-9A administered by oral gavage were compared.

In data set [2] the target is human erythrocyte 20S proteasome (Homo sapiens (Human), UniProt P28074). Description: Assay of inhibition on proteasome activity (chymotrypsin-like, Suc-LLVY-AMC substrate). Type of data set: biochemical. The text has this: The proteasome used in the present invention is human erythrocyte 20S proteasome, and the enzyme, fluorescent substrate and test buffer are all purchased from Enzo.

Data set [3] deals with proteasome activity in blood cells (Mus musculus (Mouse), UniProt O55234). Description: In-vivo pharmacodynamics: proteasome activity in blood cells. The conditions noted are these: ICR mice, oral single dose 2 mg/kg. How it is done: The compound designed in the present invention can be used to treat malignant tumors of the blood system, so the efficacy of the compound was evaluated by detecting the activity of the proteasome in the blood after single administration, and the in-vivo pharmacodynamic study can be carried out by blood sampling at different time points.
1. 8 week-old ICR mice purchased from Shanghai Bikai Laboratory Animal Co., Ltd., were transferred to a barrier system to adapt to the environment for one week.
2. The animals were divided into three groups, including a positive control group (MLN9708) and two experimental groups (IV-9, V-9A), each group having 3 animals.
3. Before administration, 100 μL of blood was sampled from each animal from the orbital venus plexus and used as the blank control, and the proteasome activity measured in blood cells in this sample was taken as 100%. 1 and 24 hrs after administration, blood was sampled from the orbital venus plexus, and the proteasome activity in blood cells was detected. The inhibitory effect of the drug on proteasome activity and recovery of proteasome activity in blood was obtained by comparison with the data at time 0.
4. […]
5. […] A cell lysing solution was added for protein quantification to correct the detected value. […] The dilution was further reacted with the fluorescent peptide substrate to detect the proteasome activity on a microplate reader.

A further data set relates to ARH-77 xenograft tumors. Description: Evaluation in animal model of xenotransplantation (ARH-77 xenograft). Type of data set: in vivo, Balb/c nude mice. The conditions noted are these: oral; for RTV Mean / T/C / TGI (tumor inhibition rate) / TV Mean: three weeks. The procedure: The human multiple myeloma cell line ARH-77 was used to implant tumors under the skin of Balb/enude mice to establish a transplanted tumor model. The specific experimental process is as follows.
1. 4-6 week-old Balb/c nude mice purchased from Shanghai Bikai Laboratory Animal Co., Ltd., were transferred to a barrier system to adapt to the environment for one week.
2. The cells were cultured to the logarithmic growth phase, digested, centrifuged, re-suspended in Matrigel at a density of 1×10^7 cells/ml, and placed on ice for later use. In the barrier system, the tumor cells were inoculated into the axilla of the animal's right forelimb in an amount of 1×10^6 cells per animal, and the inoculation volume for each animal was 100 microliters.
3. The animals were grown and the tumor volume was measured by a vernier caliper. When the average volume was increased to 100-150 mm^3, the animals were randomly divided into three groups including a blank control group, a positive drug group (Compound MLN-9708) and an experimental group […]), each group having 6 animals.
The formula for calculating tumor volume is: Volume(mm3)=0.5×(Length(mm)×Width(mm)2)
4. The compound used was formulated with a 5% R-sulfobutyl cyclodextrin sodium aqueous solution to give an appropriate concentration, ultrasonicated until the solution became clear, and then stored in a refrigerator at 4° C. for later use.
5. The mice were orally administered. The frequency of administration for the positive drug group was twice a week, and the dosage was 5 mg/kg. The mice in the experimental group were administered daily, and the dosage was 1 mg/kg. The administration was continuous for three weeks, and then the mice were sacrificed to end the experiment. During this process, the tumor volume was measured and recorded twice a week. The inhibitory effect of agents on tumor growth was calculated by the GraphPad Prism software.

proteasome activity in blood cells, sequence (O55234 60-264): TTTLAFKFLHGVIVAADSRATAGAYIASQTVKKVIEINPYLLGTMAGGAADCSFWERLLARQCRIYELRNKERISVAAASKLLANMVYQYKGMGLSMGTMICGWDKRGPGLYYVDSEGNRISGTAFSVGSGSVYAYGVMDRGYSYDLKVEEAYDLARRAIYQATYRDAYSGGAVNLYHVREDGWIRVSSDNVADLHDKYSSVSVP

Consider `CSC[C@H](NC(=O)c1cc(Cl)ccc1Cl)C(=O)N[C@@H](CC(C)C)B1OCCNCCO1` [Compound V-9A, (R)-diethanolamine N-(2,5-dichlorobenzoyl)-3-methylmercaptopropionamido-D-leucine borate], for which, in data set [1] (Sprague-Dawley (SD), iv), the AUC(0-t) came out at 2550 ng·h/mL, the MRT last came out at 2.18 h and the half-life was 3.1 h. In addition, the bioavailability in data set [1] (Sprague-Dawley (SD)) was 24.9%. In data set [1] (Sprague-Dawley (SD), po), the AUC(0-t) came out at 634 ng·h/mL, the MRT last worked out at 3.37 h and the half-life was 2.88 h. In data set [1], this molecule had a CL_obs of 11.2 mL/min/kg and a Vz_obs of 3.01 L/kg. In addition, the 50% inhibitory concentration (IC50) in data set [2] came out at 5.69 nM. The “inhibitory activity on proteasome in blood cells” value in data set [3] (1 hr after administration, compared with MLN9708 5 mg/kg) is reported as “even better inhibitory activity”. Moreover, the “proteasome activity in blood cells recovered, of the activity in the control group” value in data set [3] (24 hrs after administration) turned out to be 40%. In addition, in the data set on ARH-77 xenograft tumors (1 mg/kg daily), the “TW Mean (Day 21)” value stood at 0.65 g, the “RTV Mean” value is 3.72, the T/C is reported as 24.02% and the “TGI (tumor inhibition rate)” value was found to be 63.48%. The “TV Mean” value in the data set with ARH-77 xenograft tumors (1 mg/kg daily) amounted to 354.78 mm^3.

The molecule `CSC[C@H](NC(=O)c1cc(Cl)ccc1Cl)C(=O)N[C@@H](CC(C)C)B1OC(=O)CC(CC(=O)O)(C(=O)O)O1` (stereo partly drawn) [Compound V-9B, (R)-N-(2,5-dichlorobenzoyl)-3-methylmercaptopropionamido-D-leucine borate citratte] gave an IC50 in data set [2] of 6.6 nM.

Turning to `CSC[C@H](NC(=O)c1cc(Cl)ccc1Cl)C(=O)N[C@@H](CC(C)C)B(O)O` [IV-9], in data set [1], the CL_obs worked out at 16.4 mL/min/kg, the Vz_obs came out at 2.914 L/kg and the bioavailability came out at 11%. In data set [1] (iv), the AUC(0-t) stood at 1890 ng·h/mL, the mean residence time (MRT last) was 1.55 h and the half-life was 2.08 h. Also, in data set [1] (po), the AUC(0-t) worked out at 208 ng·h/mL, the MRT last stood at 2.35 h and the half-life was 2.14 h.

Turning to `CC(C)C[C@H](NC(=O)CNC(=O)c1cc(Cl)ccc1Cl)B1OC(=O)CC(CC(=O)O)(C(=O)O)O1` (stereo partly drawn) [MLN9708, reference compound], in the data set on ARH-77 xenograft tumors (5 mg/kg twice a week), the “TW Mean (Day 21)” value was 1.33 g, the “RTV Mean” value was 9.13, the T/C is reported as 58.94% and the “TGI (tumor inhibition rate)” value worked out at 25.28%. Besides, the “TV Mean” value with ARH-77 xenograft tumors (5 mg/kg twice a week) is on record as 1042.71 mm^3. In addition, the “TGI (tumor inhibition rate)” value with ARH-77 xenograft tumors (5 mg/kg twice a week, listed as MLN-9708) was determined as 25.28%.

What is called AUC(0-t) is exposure summed from dosing to a finite time, without extrapolation to infinity. One may read the MRT last as the average time that molecules of a dose stay in the body. A word on the half-life: it is how long it takes for the measured level to halve. Usually bioavailability stands for the share of a dose that reaches the circulation, judged against a reference dose that is usually intravenous. As usually defined, the IC50 is the midpoint of a concentration-inhibition curve. Read a high IC50 as weaker potency. As usually defined, the T/C is the ratio of treated to control.
